Results taken from patent US20180160709A1, “bitter taste removing preparation and method” (priority 2016, published 2018).

Experiment: In vitro membrane dialysis: bonding between bitter ingredients and proteins
Type: binding
Details: among whey protein, milk powder, chicken ovalbumin, bovine serum albumin
Protocol: The possible hydrophobic bonding between bitter ingredients RO and protein molecules can be explored by using membrane dialysis:
Dialysis bag was purchased from Beijing Scientan science and technology company, molecular weight range 8-14 KD. The bag was immersed in 10 mL water in a beaker. The pore size on the membrane inhibited the protein molecules from penetrating.
Into the first group (control samples) bags added in the sophora flavescens, gentian, and scutellaria decoctions and Berberine in aqueous solution respectively, 0.2 mL each, and diluted with water to 2 mL total volume each. To simulate the Chinese medicine, in the 4 medicine decoctions used as sample and control sample, there was no additive and without any post processing.
In the second group of 4×5 bags, four different protein powders were added respectively: whey protein, milk powder, chicken ovalbumin, bovine serum albumin, 5 bags for each protein, 400 mg powder in each bag. As the last step of sample preparation, 2 mL of 1/10 diluted decoction solutions were added into the protein bags, 4 different protein bags for each medicine decoction to add in. Into the remaining set of 4 different protein bags from above, 2 ml water was added instead without any medicine decoction. […]
Scheduled sampling from the 10 mL water outside the bag, and followed by HPLC quantitative analysis. […]

bovine serum albumin: protein powder, 400 mg per dialysis bag
encapsulation or hydrophobic bonding ability: strongest
